# Patent US20110257110A1, “Composition comprising a glycoside of a mono- or diacylglycerol compound and an oil rich in n-3 polyunsaturated fatty acids, a method of producing the composition and use of the composition” (HYBEN VITAL LICENS APS, priority 2008, published 2011)
# Tests used:
# [1] = aqueous solutions as described in WO03/43613, storage; cited from earlier work
# [2] = system: polymorphonuclear leucocytes; settings: WO 03/043613 A1; cited from earlier work
# [3] = system: human peripheral blood leukocytes; experiment: chemiluminescence of peripheral blood leukocytes (oxidative burst response); assay type: cell-based; settings: fairly low concentrations
# From the text: Chemiluminescence is a measure of oxidative burst response. […] As the actual tissue damage caused by inflammatory cells such as PMN's and monocytes/macrophages, through the release of proteolytic and hydrolytic enzymes as well as toxic reactive oxygen radicals are activated in the tissue and joints, the isolated compound should be a potent inhibitor of the oxidative burst response of the human peripheral blood polymorphonuclear leukocytes, the most important and abundant inflammatory cells. It is therefore believed that the glycosides of mono- or diacylglycerol compounds, especially GOPO, are responsible for the anti inflammatory effects of rose hip extracts.
# mononuclear leucocytes = settings: WO 03/043613 A1; cited from earlier work
smiles,measurement,setting,value
"CC/C=C\C/C=C\C/C=C\CCCCCCCC(=O)OCC(CO[C@@H]1O[C@H](CO)[C@H](O)[C@H](O)[C@H]1O)OC(=O)CCCCCCC/C=C\C/C=C\C/C=C\CC (stereo partly drawn) [GOPO, 3-β-D-galactopyranosyloxy-2-(octadeca-9Z,12Z,15Z-trienoyloxy)propanyl octadeca-9Z,12Z,15Z-trienoate]",stability in aqueous solutions,[1],lack stability
same,chemiluminescence of polymorphonuclear leucocytes,[2],alleviating
same,chemiluminescence of human peripheral blood leukocytes,[3],inhibited
same,chemotaxis of mononuclear leucocytes,mononuclear leucocytes,alleviating
